The subject of one assay is KDM5A/B. Description: In vitro cell-based assay: quantitative immuno-blotting of tri-methyl H3K4 in ZR-75-1 breast cancer cells. Particulars: Homo sapiens, 72 hours exposure, read-out: Cellular IC50. The text has this: This quantitative immuno-blotting assay measures the amount tri-methylated histone H3 at amino acid Lysine number 4, a specific substrate […] of the direct enzymatic activity of the histone demethylases KDM5A and KDM5B from extracts of the ZR-75-1 breast cancer cell line.
This assay is a fluorometric immunoassay for the quantification of tri-methyl H3K4 extracted from cells treated with test compound and is used as a measure of the cellular inhibition of KDM5A/B.
ZR-75-1 (PTEN null, ER+) breast cancer cells numbering 50,000 (ATCC) were seeded into each well of a 96-well tissue culture treated plate and then exposed to an 11 point dilution of test compound with final concentration ranges of test compound ranging from […] to 10 nM. […] Extracts were prepared containing all of the cellular histone material using detergent based lysis and sonication methods. These lysates were subsequently normalized for total protein content using a colorimetric bicinchonic acid assay (MicroBCA Pierce/Thermo Scientific). Normalized cell extracts were then subjected to typical immuno-blotting procedures using NuPage reagents (Life Technologies). Electrophoretically separated histones were then transferred and immobilized using polyvinylidene difluoride membrane (Immobilon-FL Millipore). The amount of tri-methylated lysine 4 of histone H3 was detected using an antibody specific to the tri-methylated state (Cell Signaling Technologies) and quantified on an infrared imager using a densitometry software package (Odyssey CLx, Image Studio, Li-Cor). This background subtracted densitometry value was reported as a ration of the GAPDH amount for that sample and then calculated as a percent of the DMSO treated sample. The software package XL-fit (IDBS) was then used to calculate a relative IC50 value for the dilution series of a given test compound according to the equation: fit=(D+((Vmax*(x^n))/((x^n)+(Km^n)))).

The next assay addresses Jarid1B (Homo sapiens (Human), UniProt Q9UGL1). Description: Jarid1B in vitro enzyme inhibition assay (TR-FRET). Format: biochemical. On the technique in general: TR-FRET usually uses a lanthanide donor and a delayed reading to cut background.
The next assay has as its target FBXL10 (Homo sapiens (Human), UniProt Q8NHM5). Description: FBXL10 in vitro enzyme inhibition assay (AlphaScreen). Format: biochemical. In outline: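 AlphaScreen read-out of H3K36me1 product, detected with anti-H3K36me1 antibody plus streptavidin donor and Protein A acceptor beads (final 10 μg/ml) in 50 mM HEPES pH 7.3, 10 mM NaCl, 0.005% Brij35, 5 mM EDTA, 2 mg/ml BSA. Beads incubated 2 h to overnight at room temperature; IC50 derived from AlphaScreen signal.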
Background: Alpha assays give light when donor and acceptor beads are brought close together.

A further assay concerns the target Jarid1A (Homo sapiens (Human), UniProt P29375). Description: Jarid1A in vitro enzyme inhibition assay (TR-FRET). Format: biochemical. The source says: The enzymatic assay of Jarid1A activity is based upon Time Resolved-Fluorescence Resonance Energy Transfer (TR-FRET) detection.
For the next assay, the target named is JMJD2C (Homo sapiens (Human), UniProt Q9H3R0). Description: JMJD2C in vitro enzyme inhibition assay (TR-FRET). Format: biochemical.
The next assay has as its target JMJD2A (Homo sapiens (Human), UniProt O75164). The experiment in a line: JMJD2A in vitro enzyme inhibition assay (TR-FRET). Conditions: read-out: JMJD2A IC50.

JMJD2C, sequence (Q9H3R0 2-372): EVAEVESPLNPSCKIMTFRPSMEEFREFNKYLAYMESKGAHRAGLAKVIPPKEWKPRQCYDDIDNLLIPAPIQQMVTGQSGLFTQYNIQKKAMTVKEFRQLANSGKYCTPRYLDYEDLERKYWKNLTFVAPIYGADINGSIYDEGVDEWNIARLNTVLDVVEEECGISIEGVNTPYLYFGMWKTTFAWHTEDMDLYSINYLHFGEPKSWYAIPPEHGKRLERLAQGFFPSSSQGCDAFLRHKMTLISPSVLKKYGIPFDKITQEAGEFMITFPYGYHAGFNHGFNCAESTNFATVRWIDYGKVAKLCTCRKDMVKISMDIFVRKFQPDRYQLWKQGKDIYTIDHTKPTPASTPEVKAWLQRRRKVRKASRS
FBXL10, sequence (Q8NHM5 1-650): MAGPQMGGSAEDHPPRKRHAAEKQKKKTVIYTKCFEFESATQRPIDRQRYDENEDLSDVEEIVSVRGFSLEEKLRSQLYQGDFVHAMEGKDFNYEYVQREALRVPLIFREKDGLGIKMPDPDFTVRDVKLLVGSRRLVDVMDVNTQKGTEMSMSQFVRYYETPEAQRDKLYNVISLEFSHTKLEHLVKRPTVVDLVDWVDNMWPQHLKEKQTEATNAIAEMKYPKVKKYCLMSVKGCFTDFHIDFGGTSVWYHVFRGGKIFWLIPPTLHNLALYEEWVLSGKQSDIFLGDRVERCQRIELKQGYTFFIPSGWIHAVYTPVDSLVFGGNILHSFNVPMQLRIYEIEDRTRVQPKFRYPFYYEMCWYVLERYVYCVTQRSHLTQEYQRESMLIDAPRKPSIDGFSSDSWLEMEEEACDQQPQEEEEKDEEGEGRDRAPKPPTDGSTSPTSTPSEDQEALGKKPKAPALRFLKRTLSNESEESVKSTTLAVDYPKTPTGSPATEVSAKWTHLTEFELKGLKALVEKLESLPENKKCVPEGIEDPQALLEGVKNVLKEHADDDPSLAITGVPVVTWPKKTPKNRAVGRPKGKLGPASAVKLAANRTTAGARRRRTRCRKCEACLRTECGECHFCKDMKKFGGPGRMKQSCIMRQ
Jarid1B, sequence (Q9UGL1 2-751): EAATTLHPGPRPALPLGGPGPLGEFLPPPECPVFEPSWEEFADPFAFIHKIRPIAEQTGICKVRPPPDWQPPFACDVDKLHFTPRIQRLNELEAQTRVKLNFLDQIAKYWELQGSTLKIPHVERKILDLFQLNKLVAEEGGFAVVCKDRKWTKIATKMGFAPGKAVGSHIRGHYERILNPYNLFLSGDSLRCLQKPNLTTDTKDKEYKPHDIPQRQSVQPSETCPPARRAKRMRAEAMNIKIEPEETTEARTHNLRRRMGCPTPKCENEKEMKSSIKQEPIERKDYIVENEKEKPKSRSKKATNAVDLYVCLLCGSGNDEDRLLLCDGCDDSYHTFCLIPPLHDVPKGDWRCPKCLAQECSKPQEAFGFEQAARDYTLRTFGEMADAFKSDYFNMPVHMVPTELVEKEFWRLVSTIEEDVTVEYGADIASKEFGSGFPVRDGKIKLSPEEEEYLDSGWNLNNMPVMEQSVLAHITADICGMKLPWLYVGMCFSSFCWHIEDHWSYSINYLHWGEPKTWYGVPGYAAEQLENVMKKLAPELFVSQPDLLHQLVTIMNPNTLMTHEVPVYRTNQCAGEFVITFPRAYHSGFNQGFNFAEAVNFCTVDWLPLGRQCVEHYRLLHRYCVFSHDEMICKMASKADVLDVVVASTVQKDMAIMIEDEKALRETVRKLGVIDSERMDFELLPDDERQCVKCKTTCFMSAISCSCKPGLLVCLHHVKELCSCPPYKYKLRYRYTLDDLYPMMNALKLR
Jarid1A, sequence (P29375 1-1090): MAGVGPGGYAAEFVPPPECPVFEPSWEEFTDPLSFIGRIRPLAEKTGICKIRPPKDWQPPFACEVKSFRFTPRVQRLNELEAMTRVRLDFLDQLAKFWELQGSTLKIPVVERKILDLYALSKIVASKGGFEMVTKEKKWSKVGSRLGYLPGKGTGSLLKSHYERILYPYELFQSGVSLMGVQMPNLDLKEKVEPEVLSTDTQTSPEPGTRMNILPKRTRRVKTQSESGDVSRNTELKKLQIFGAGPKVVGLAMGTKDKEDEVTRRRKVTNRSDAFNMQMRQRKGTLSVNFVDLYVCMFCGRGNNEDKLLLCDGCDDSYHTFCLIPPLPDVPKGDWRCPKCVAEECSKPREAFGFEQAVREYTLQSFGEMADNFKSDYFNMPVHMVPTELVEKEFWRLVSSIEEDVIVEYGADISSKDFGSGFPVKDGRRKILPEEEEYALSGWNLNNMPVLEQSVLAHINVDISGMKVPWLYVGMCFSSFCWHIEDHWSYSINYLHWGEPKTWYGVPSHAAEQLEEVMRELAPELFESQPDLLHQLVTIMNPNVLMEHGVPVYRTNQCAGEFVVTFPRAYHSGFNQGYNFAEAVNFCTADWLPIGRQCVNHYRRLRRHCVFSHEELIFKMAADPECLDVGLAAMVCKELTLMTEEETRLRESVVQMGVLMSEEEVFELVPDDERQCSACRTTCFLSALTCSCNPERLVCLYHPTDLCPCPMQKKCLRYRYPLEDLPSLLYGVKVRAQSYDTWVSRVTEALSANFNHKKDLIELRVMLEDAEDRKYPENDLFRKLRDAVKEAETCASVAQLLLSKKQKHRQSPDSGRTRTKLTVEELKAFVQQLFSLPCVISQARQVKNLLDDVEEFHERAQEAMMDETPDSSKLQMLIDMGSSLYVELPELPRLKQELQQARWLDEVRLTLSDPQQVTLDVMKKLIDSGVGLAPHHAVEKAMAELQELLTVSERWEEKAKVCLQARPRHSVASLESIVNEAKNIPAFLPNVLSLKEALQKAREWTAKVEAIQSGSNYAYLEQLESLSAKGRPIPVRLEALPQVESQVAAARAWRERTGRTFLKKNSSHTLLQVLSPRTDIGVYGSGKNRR
JMJD2A, sequence (O75164 1-350): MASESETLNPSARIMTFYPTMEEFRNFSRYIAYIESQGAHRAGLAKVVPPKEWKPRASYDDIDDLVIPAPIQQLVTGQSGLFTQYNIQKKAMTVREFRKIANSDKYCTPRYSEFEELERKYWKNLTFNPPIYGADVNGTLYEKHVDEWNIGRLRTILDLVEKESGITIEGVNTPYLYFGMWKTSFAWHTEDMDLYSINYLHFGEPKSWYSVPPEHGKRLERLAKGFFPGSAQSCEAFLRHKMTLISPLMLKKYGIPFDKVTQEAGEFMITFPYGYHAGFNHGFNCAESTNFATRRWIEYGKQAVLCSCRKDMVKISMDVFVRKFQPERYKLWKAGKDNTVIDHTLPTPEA
Experimental for JMJD2A: (§1) This assay determines the ability of a test compound to inhibit Jarid1A, Jarid1B, JMJD2C, and JMJD2A demethylase activity.
Reaction product was determined quantitatively by TR-FRET after the addition of detection reagent Phycolink Streptavidin-allophycocyanin (Prozyme) and Europium-anti-di-methylated histone H3 lysine 9 (H3K9me2) antibody (PerkinElmer) in the presence of 5 mM EDTA in LANCE detection buffer (PerkinElmer) at a final concentration of 50 nM and 1 nM, respectively.
The assay reaction was initiated by the following: 2 μl of the mixture of 900 nM H3K9me3-biotin labeled peptide and 6 μM alpha-ketoglutaric acid with 2 μl of 11-point serial diluted inhibitor in 3% DMSO were added to each well of plate, followed by the addition of 2 μl of 6 nM JMJD2A to initiate the reaction. The reaction mixture was incubated at room temperature for 30 minutes, and terminated by the addition of 6 μl of 5 mM EDTA in LANCE detection buffer containing 100 nM Phycolink Streptavidin-allophycocyanin and 2 nM Europium-anti-H3K9me2 antibody.
Experimental for Jarid1B: as §1
The ability of test compounds to inhibit the activity of Jarid1B was determined in 384-well plate format under the following reaction conditions: 0.8 nM Jarid1B, 300 nM H3K4me3-biotin labeled peptide (Anaspec cat #64357), 2 μM alpha-ketoglutaric acid in assay buffer of 50 mM HEPES, pH7.3, 0.005% Brij35, 0.5 mM TCEP, 0.2 mg/ml BSA, 50 μM sodium L-ascorbate, and 2 μM ammonium iron(II) sulfate. Reaction product was determined quantitatively by TR-FRET after the addition of detection reagent Phycolink Streptavidin-allophycocyanin (Prozyme) and Europium-anti-mono- or di-methylated histone H3 lysine 4 (H3K4me1-2) antibody (PerkinElmer) in the presence of 5 mM EDTA in LANCE detection buffer (PerkinElmer) at a final concentration of 25 nM and 1 nM, respectively.
The assay reaction was initiated by the following: 2 μl of the mixture of 900 nM H3K4me3-biotin labeled peptide and 6 μM alpha-ketoglutaric acid with 2 μl of 11-point serial diluted inhibitor in 3% DMSO was added to each well of the plate, followed by the addition of 2 μl of 2.4 nM Jarid1B to initiate the reaction. The reaction mixture was incubated at room temperature for 30 minutes, and terminated by the addition of 6 μl of 5 mM EDTA in LANCE detection buffer containing 50 nM Phycolink Streptavidin-allophycocyanin and 2 nM Europium-anti-H3K4me1-2 antibody. Plates were read by EnVisionMultilabel Reader in TR-FRET mode (excitation at 320 nm, emission at 615 nm and 665 nm) after 1 hour incubation at room temperature. A ratio was calculated (665/615) for each well and fitted to determine inhibition constant (IC50).

As to `Cn1ncc2ccc(COc3ccnn3-c3cc(C(=O)O)ccn3)cc21` [Example 50, 2-{5-[(1-methyl-1H-indazol-6-yl)methoxy]-1H-pyrazol-1-yl}pyridine-4-carboxylic acid], the IC50 was > 10000 nM with KDM5A/B, < 100 nM against Jarid1B, 100 to 1000 nM on FBXL10 and < 100 nM on Jarid1A.

For the molecule `O=C(O)c1ccnc(-n2nccc2OCc2cccc(Br)c2)c1` [Example 72, 2-{5-[(3-bromobenzyl)oxy]-1H-pyrazol-1-yl}pyridine-4-carboxylic acid], the IC50 is 1000 to 10000 nM with KDM5A/B, < 100 nM at Jarid1B, < 100 nM against JMJD2C and < 100 nM against Jarid1A.

Take `O=C(O)c1ccnc(-n2nccc2OCc2ccc(Cl)c(F)c2)c1` [Example 74, 2-{5-[(4-chloro-3-fluorobenzyl)oxy]-1H-pyrazol-1-yl}pyridine-4-carboxylic acid]: the IC50 is 1000 to 10000 nM in the assay on KDM5A/B, < 100 nM against Jarid1B, < 100 nM against JMJD2C and < 100 nM on Jarid1A.

For the molecule `O=C(O)c1ccnc(-n2nccc2OCc2ccc(Cl)c(Cl)c2)c1` [Example 87, 2-[5-[(3,4-dichlorophenyl)methoxy]pyrazol-1-yl]pyridine-4-carboxylic acid], the IC50 with KDM5A/B is 100 to 1000 nM; on Jarid1B, < 100 nM; against JMJD2C, 100 to 1000 nM; at Jarid1A, < 100 nM.

In the case of `Cc1cc(Cl)ccc1COc1ccnn1-c1cc(C(=O)O)ccn1` [Example 89, 2-[5-[(4-chloro-2-methylphenyl)methoxy]pyrazol-1-yl]pyridine-4-carboxylic acid], the IC50 in the assay on KDM5A/B is < 100 nM; at Jarid1B it was < 100 nM; on JMJD2C it was 100 to 1000 nM; at FBXL10 it was 100 to 1000 nM; at Jarid1A, < 100 nM.

Turning to `CCOc1cc(Cl)ccc1COc1ccnn1-c1cc(C(=O)O)ccn1` [Example 115, 2-[5-[(4-chloro-2-ethoxyphenyl)methoxy]pyrazol-1-yl]pyridine-4-carboxylic acid], the IC50 was 100 to 1000 nM in the assay on KDM5A/B, < 100 nM against Jarid1B, 100 to 1000 nM at JMJD2C and < 100 nM on Jarid1A.

For `O=C(O)c1ccnc(-n2nccc2OCc2ccc(Cl)cc2OCc2ccc(F)cc2)c1` [Example 117, 2-[5-[[4-chloro-2-[(4-fluorophenyl)methoxy]phenyl]methoxy]pyrazol-1-yl]pyridine-4-carboxylic acid], the IC50 in the assay with KDM5A/B was in the range of 1000 to 10000 nM; on Jarid1B, 100 to 1000 nM; at JMJD2C, 1000 to 10000 nM; against FBXL10, 1000 to 10000 nM; on Jarid1A, 100 to 1000 nM; at JMJD2A, 1000 to 10000 nM.

`Cc1cc(C#N)ccc1COc1ccnn1-c1cc(C(=O)O)ccn1` [Example 125, 2-[5-[(4-cyano-2-methylphenyl)methoxy]pyrazol-1-yl]pyridine-4-carboxylic acid]: the IC50 was 1000 to 10000 nM with KDM5A/B, < 100 nM on Jarid1B, 100 to 1000 nM against JMJD2C and < 100 nM against Jarid1A.

`CCc1cc(Cl)ccc1COc1ccnn1-c1cc(C(=O)O)ccn1` [Example 127, 2-[5-[(4-chloro-2-ethylphenyl)methoxy]pyrazol-1-yl]pyridine-4-carboxylic acid]: the IC50 in the assay with KDM5A/B fell in the range of 1000 to 10000 nM; at Jarid1B, 100 to 1000 nM; against JMJD2C it was 1000 to 10000 nM; against Jarid1A it was 100 to 1000 nM.

Take `COc1cc(C)ccc1COc1ccnn1-c1cc(C(=O)O)ccn1` [Example 133, 2-[5-[(2-methoxy-4-methylphenyl)methoxy]pyrazol-1-yl]pyridine-4-carboxylic acid]: the IC50 with KDM5A/B is 100 to 1000 nM; at Jarid1B, < 100 nM; against JMJD2C it was 100 to 1000 nM; at FBXL10 it was 1000 to 10000 nM; against Jarid1A it was < 100 nM; on JMJD2A it was 100 to 1000 nM.

As usually defined, the IC50 is the concentration needed to halve the response being measured.
